Experimental data as given in ChEMBL document CHEMBL3351433, “Synthesis and evaluation of new 3-phenylcoumarin derivatives as potential antidepressant agents” (Bioorg Med Chem Lett, 2014).

Key:
Mus musculus [1] = test: Antidepressant activity in Swiss mouse assessed as reduction of immobility time at 0.5 mg/kg, ip after 30 mins by forced swimming test relative to vehicle-treated control; assay type: functional; design: scale not given: the % may be the effect or the level left; settings: route intraperitoneal
[2] = Oral bioavailability in rat; assay type: ADME, organism-based; settings: in vivo
[3] = Cmax in Swiss albino mouse at 10 mg/kg, ip; assay type: ADME, organism-based; design: dose 10 mg/kg, route intraperitoneal; settings: in vivo
Mus musculus [4] = test: Antidepressant activity in Swiss mouse assessed as reduction of immobility time at 1 mg/kg, ip after 30 mins by forced swimming test relative to vehicle-treated control; assay type: functional; design: scale not given: the % may be the effect or the level left; settings: route intraperitoneal
[5] = Volume of distribution in Swiss albino mouse at 1 mg/kg, iv; assay type: ADME, organism-based; design: dose 1 mg/kg, route intravenous; settings: in vivo
[6] = Bioavailability in Swiss albino mouse at 10 mg/kg, ip; settings: in vivo, intraperitoneal
[7] = Clearance in Swiss albino mouse at 1 mg/kg, iv; assay type: ADME, organism-based; design: dose 1 mg/kg, route intravenous; settings: in vivo
[8] = Terminal half life in Swiss albino mouse at 10 mg/kg, ip; assay type: ADME, organism-based; design: dose 10 mg/kg, route intraperitoneal; settings: in vivo, read-out: beta t1/2 (converted)
Mus musculus [9] = test: Toxicity in Swiss mouse assessed as horizontal activity count at 0.5 mg/kg, ip after 30 mins measured for 120 mins by open field locomotor activity test; assay type: organism-based; design: dose 0.5 mg/kg, route intraperitoneal; settings: in vivo
[10] = Cmax in Swiss albino mouse at 1 mg/kg, iv; assay type: ADME, organism-based; design: dose 1 mg/kg, route intravenous; settings: in vivo
[11] = Terminal half life in Swiss albino mouse at 1 mg/kg, iv; assay type: ADME, organism-based; design: dose 1 mg/kg, route intravenous; settings: in vivo, read-out: beta t1/2 (converted)
Mus musculus [12] = test: Toxicity in Swiss mouse assessed as total distance travelled at 0.5 mg/kg, ip after 30 mins measured for 120 mins by open field locomotor activity test; assay type: organism-based; design: dose 0.5 mg/kg, route intraperitoneal; settings: in vivo, 2 h
Mus musculus [13] = test: Antidepressant activity in Swiss mouse assessed as reduction of immobility time at 0.5 mg/kg, ip by tail suspension test relative to vehicle-treated control; assay type: functional; design: scale not given: the % may be the effect or the level left; settings: route intraperitoneal
Mus musculus [14] = species on record: Mus musculus; test: Toxicity in Swiss mouse assessed as effect on neuro-muscular coordination after 30 to 180 mins by rotarod test; assay type: organism-based; settings: in vivo
Mus musculus [15] = test: Antidepressant activity in Swiss mouse assessed as reduction of immobility time at 0.25 mg/kg, ip after 30 mins by forced swimming test relative to vehicle-treated control; assay type: functional; design: scale not given: the % may be the effect or the level left; settings: route intraperitoneal
[16] = AUC (0 to infinity) in Swiss albino mouse at 1 mg/kg, iv; assay type: ADME, organism-based; design: time infinity, dose 1 mg/kg, route intravenous; settings: plasma
[17] = Clearance in Swiss albino mouse at 10 mg/kg, ip; assay type: ADME, organism-based; design: dose 10 mg/kg, route intraperitoneal; settings: in vivo
[18] = Tmax in Swiss albino mouse at 10 mg/kg, ip; assay type: ADME, organism-based; design: dose 10 mg/kg, route intraperitoneal; settings: in vivo
Mus musculus [19] = test: Volume of distribution in Swiss albino mouse at 10 mg/kg, ip; assay type: ADME, organism-based; design: dose 10 mg/kg, route intraperitoneal; settings: in vivo
[20] = AUC (0 to infinity) in Swiss albino mouse at 10 mg/kg, ip; assay type: ADME, organism-based; design: time infinity, dose 10 mg/kg, route intraperitoneal; settings: plasma

SMILES | Activity (Mus musculus [1]) [%] | Activity (Mus musculus [4]) [%] | Activity (Mus musculus [9]) | Activity (Mus musculus [12]) | Activity (Mus musculus [13]) [%] | Activity (Mus musculus [14]) | Activity (Mus musculus [15]) [%] | other results
COc1ccc(-c2cc3cc(CBr)cc(C(C)(C)C)c3oc2=O)cc1OC | 55 |  |  |  |  |  |  | 
CNCCC(Oc1ccc(C(F)(F)F)cc1)c1ccccc1 (stereo not given) [FLUOXETINE] |  |  |  |  |  |  |  | bioavailability [2]: 60%
COc1ccc(-c2cc3cc(CO)cc(C(C)(C)C)c3oc2=O)cc1OC | 58 |  |  |  |  |  |  | 
COc1ccc(-c2cc3cc(CBr)cc(C)c3oc2=O)cc1OC | 61 |  |  |  |  |  |  | 
COc1ccc(-c2cc3cc(CNc4ccc(C)cc4)cc(C)c3oc2=O)cc1 | 80 | 75 | Non-toxic | Non-toxic | 53 | Non-toxic | 17 | Cmax [3]: 256 ng/mL; Vd [5]: 18 L/kg; bioavailability [6]: 73.4%; clearance [7]: 67.3 mL/min/kg; half-life [8]: 7.57 h; Cmax [10]: 105 ng/mL; half-life [11]: 3.21 h; AUC(0-inf) [16]: 316 ng·h/mL; CL/F [17]: 47.2 mL/min/kg; Tmax [18]: 2 h; Vd (Mus musculus [19]): 30.45 L/kg; AUC(0-inf) [20]: 2330 ng·h/mL
COc1cc(-c2cc3cc(CBr)cc(C)c3oc2=O)cc(OC)c1OC | 73 | 71 | Non-toxic | Non-toxic | 49 | Non-toxic | 16 | 
